Data taken from patent publication US20230310393A1 (Tianjin Creatron Biotechnology Co., Ltd., priority 2020, published 2023).
Where a name gives a salt, the structure may show the parent alone.

Tests used:
[1] = Screening of crystallization inhibitors: sorafenib content in polymer carrier/cholate medium over time; assay type: physicochemical; conditions: pH 6.8 phosphate + 0.1% SDS with the inhibitor, 37° C.
[2] = Solubility test of solid dispersions (pH 1.0 hydrochloric acid, pH 6.8 phosphate buffer, FaSSGF, FaSSIF); assay type: physicochemical; conditions: pH 1.0 hydrochloric acid solution, 37° C., main drug:carrier 1:3
Protocol: An appropriate amount of solid dispersion (SD) was added to a pH 1.0 hydrochloric acid solution and a pH 6.8 phosphate buffer solution, while keeping the SD in excess, and shaken at 37° C. in a shaker at 300 rpm.

| Structure (SMILES) | Sorafenib content detection ([1]; 0.5 h) [µg/mL] | Sorafenib content detection ([1]; 1 h) [µg/mL] | Sorafenib content detection ([1]; 2 h) [µg/mL] | Sorafenib content detection ([1]; 3 h) [µg/mL] | Sorafenib content detection ([1]; 4 h) [µg/mL] | Sorafenib content detection ([1]; 6 h) [µg/mL] | Solubility ([2]; 0.5 h) [µg/mL] | Solubility ([2]; 2 h) [µg/mL] | Solubility ([2]; 4 h) [µg/mL] |
| --- | --- | --- | --- | --- | --- | --- | --- | --- | --- |
| C[C@H](CCC(=O)NCC(=O)[O-])[C@H]1CC[C@H]2[C@@H]3[C@H](O)C[C@@H]4C[C@H](O)CC[C@]4(C)[C@H]3C[C@H](O)[C@]12C.[Na+] [0.3% SGC, sodium glycocholate] | 14.32 | 5.88 | 4.32 | 3.98 | 3.77 | 3.57 |  |  |  |
| C[C@H](CCC(=O)NCC(=O)[O-])[C@H]1CC[C@H]2[C@@H]3[C@H](O)C[C@@H]4C[C@H](O)CC[C@]4(C)[C@H]3CC[C@]12C.[Na+] [0.3% SGCDC, sodium glycochenodeoxycholate] | 61.59 | 47.08 | 10.41 | 5.38 | 4.28 | 3.68 |  |  |  |
| C[C@H](CCC(=O)NCC(=O)[O-])[C@H]1CC[C@H]2[C@@H]3CC[C@@H]4C[C@H](O)CC[C@]4(C)[C@H]3C[C@H](O)[C@]12C.[Na+] [0.3% SGDC, sodium glycodeoxycholate] | 15.78 | 6.28 | 4.11 | 4.01 | 4.04 | 3.87 |  |  |  |
| C[C@H](CCC(=O)NCCS(=O)(=O)[O-])[C@H]1CC[C@H]2[C@@H]3[C@@H](O)C[C@@H]4C[C@H](O)CC[C@]4(C)[C@H]3CC[C@]12C.[Na+] [0.3% STCDC] | 14.43 | 6.22 | 4.69 | 4.79 | 4.81 | 5.79 |  |  |  |
| C[C@H](CCC(=O)NCCS(=O)(=O)[O-])[C@H]1CC[C@H]2[C@@H]3CC[C@@H]4C[C@H](O)CC[C@]4(C)[C@H]3C[C@H](O)[C@]12C.[Na+] [0.3% STDC, sodium taurodeoxycholate] | 47.72 | 25.90 | 11.19 | 7.82 | 6.58 | 5.90 |  |  |  |
| CNC(=O)c1cc(Oc2ccc(NC(=O)Nc3ccc(Cl)c(C(F)(F)F)c3)cc2)ccn1 [TSSLFN, Sorafenib tosylate] |  |  |  |  |  |  | 3.7 | 4.1 | 4.1 |
